The data set in a line: Accelerated blood clearance (ABC) effect, hEPO serum PK after multiple LNP injections (ELISA). Type of data set: in vivo, C57BL/6J mice. The settings on record: PCB-LNP containing the lipid; intravenous, 5 μg mRNA; third injection; compared to MC3 formulations. The protocol: Accelerated blood clearance (ABC) effect has been reported in cases where LNPs were injected multiple times with rapid clearance of LNPs observed in the subsequent injections. […] In this example, PCB-LNP containing ZW-B-CBn from Example 7 were used to study the ABC effect of LNPs. MC3-based PEG-LNP from Example 2 was used as a control.
For in vivo pharmacokinetic (PK) study, male C57BL/6J mice aged 3-4 weeks in groups of three were administered intravenously with mRNA-LNP at a dosage of 5 μg of mRNA. Two different injection cohorts were performed. (FIG. 15a) In cohort 1, only one dose of hEPO-mRNA (human erythropoietin mRNA) was given. In cohort 2, Fluc-mRNA ([…]) was dosed for the first two injections, and hEPO-mRNA for the last injection. (FIG. 15a) Cohort 2 was designed in a way to eliminate anti-hEPO immune response induced from first two injections, and thereby the PK profile of hEPO in the third injection is mainly indicating the ABC effect due to LNP components. To determine the PK profile of hEPO, mice sera were collected at 6-hour, 24-hour post-injection, and analyzed using ELISA (DuoSet, hEPO ELISA kit, R&D).

The values below come from US20240307309A1, “ZWITTERIONIC LIPID NANOPARTICLE COMPOSITIONS, AND METHODS OF USE” (CORNELL UNIVERSITY, priority 2020, published 2024).

As to `CCCCCCCCCOC(=O)CCCCCCCN(CCCCCCCC(=O)OC(CCCCCCCC)CCCCCCCCC)CC(=O)O` (centres unmarked) [ZW-B-CB1, N-(8-(nonyloxy)-8-oxooctyl)-N-(8-(octadecan-9-yloxy)-8-oxooctyl)glycine], the “ABC effect (hEPO serum concentration, injection cohort 2 versus cohort 1)” value was “less ABC effect”.

In the case of `CCCCCCCCCOC(=O)CCCCCCCN(CCCCCCCC(=O)OC(CCCCCCCC)CCCCCCCCC)CCC(=O)O` (centres unmarked) [ZW-B-CB2, 3-((8-(nonyloxy)-8-oxooctyl)(8-(octadecan-9-yloxy)-8-oxooctyl)amino)propanoic acid], the “ABC effect (hEPO serum concentration, injection cohort 2 versus cohort 1)” value is “less ABC effect”.
